Assay: Particle size of unmilled and jet milled Compound X (optical microscopy, Microtrac, Aerosizer, SEM)
Assay type: physicochemical
Text: In the studies described below the aerosol performance of micronized Compound X with three different grades of lactose made specifically for inhalation in an Spinhaler® is compared. The carriers studied were milled lactose for inhalation (Respitose™ ML003), sieved lactose for inhalation (Respitose SV003) and granulated lactose for inhalation (Respitose LS243). Each carrier was characterized for particle size, flow properties and morphology. Jet milled Compound X, with an average particle size of 2.8 microns was used in the studies. […] Blends were manufactured with 4% w/w drug loading at a scale of 1 g. Capsules were then filled with 25 mg of blend to achieve a 1 mg nominal dose. Each blend was characterized for blend uniformity, dose uniformity and aerodynamic particle size distribution. Granulated lactose produced the weakest drug aerosolization compared to milled and sieved lactose. […] The delivered shot weight was 92% of target with an in-vitro respirable fraction of 26% and an emitted dose of 34%. The formulation is considered appropriate for animal model studies use however optimization of the formulation and the blending characteristics will be pursued following results from the in-vivo animal studies. Three jet milled samples of Compound X observed using X-ray powder diffraction (XRPD) and thermogravimetry (TGA) that the jet milled samples had similar properties to the unmilled lots. The samples retained their crystalline form. By SEM, it was observed that the jet milled drug was smaller in particle size compared to the unmilled drug, while maintaining the needle-like morphology. Drug particle size ranged from ca. 2-25 μm in length and ca. 2 μm in width with agglomerates up to 50 μm in diameter. Only one of the jet milled lots was used for the described studies below.

O=C(NC1CC1)c1cn(-c2cccc(C#Cc3ccc[n+]([O-])c3)c2)c2ncccc2c1=O [Milled API, N-cyclopropyl-1-[3-(1-oxido-3-pyridinylethynyl)phenyl]-1,4-dihydro[1,8]naphthyridin-4-one-3-carboxamide]
Drug particle size, length (SEM, jet milled): 2-25 μm | Drug particle size, width (SEM, jet milled): ca. 2 μm | agglomerates, diameter (SEM, jet milled): up to 50 μm | average particle size (jet milled drug used in the studies): 2.8 microns

— patent US20070071692A1, “Aerosol powder formulation” (priority 2005, published 2007)
